Our source for the IC50 values is US20240246992A1, “MACROCYCLIC LRRK2 KINASE INHIBITORS” (LES LABORATOIRES SERVIER, priority 2021, published 2024).

SMILES strings stand for the structures.

Sequence of human recombinant LRRK2 protein (Q5S007 whole entry): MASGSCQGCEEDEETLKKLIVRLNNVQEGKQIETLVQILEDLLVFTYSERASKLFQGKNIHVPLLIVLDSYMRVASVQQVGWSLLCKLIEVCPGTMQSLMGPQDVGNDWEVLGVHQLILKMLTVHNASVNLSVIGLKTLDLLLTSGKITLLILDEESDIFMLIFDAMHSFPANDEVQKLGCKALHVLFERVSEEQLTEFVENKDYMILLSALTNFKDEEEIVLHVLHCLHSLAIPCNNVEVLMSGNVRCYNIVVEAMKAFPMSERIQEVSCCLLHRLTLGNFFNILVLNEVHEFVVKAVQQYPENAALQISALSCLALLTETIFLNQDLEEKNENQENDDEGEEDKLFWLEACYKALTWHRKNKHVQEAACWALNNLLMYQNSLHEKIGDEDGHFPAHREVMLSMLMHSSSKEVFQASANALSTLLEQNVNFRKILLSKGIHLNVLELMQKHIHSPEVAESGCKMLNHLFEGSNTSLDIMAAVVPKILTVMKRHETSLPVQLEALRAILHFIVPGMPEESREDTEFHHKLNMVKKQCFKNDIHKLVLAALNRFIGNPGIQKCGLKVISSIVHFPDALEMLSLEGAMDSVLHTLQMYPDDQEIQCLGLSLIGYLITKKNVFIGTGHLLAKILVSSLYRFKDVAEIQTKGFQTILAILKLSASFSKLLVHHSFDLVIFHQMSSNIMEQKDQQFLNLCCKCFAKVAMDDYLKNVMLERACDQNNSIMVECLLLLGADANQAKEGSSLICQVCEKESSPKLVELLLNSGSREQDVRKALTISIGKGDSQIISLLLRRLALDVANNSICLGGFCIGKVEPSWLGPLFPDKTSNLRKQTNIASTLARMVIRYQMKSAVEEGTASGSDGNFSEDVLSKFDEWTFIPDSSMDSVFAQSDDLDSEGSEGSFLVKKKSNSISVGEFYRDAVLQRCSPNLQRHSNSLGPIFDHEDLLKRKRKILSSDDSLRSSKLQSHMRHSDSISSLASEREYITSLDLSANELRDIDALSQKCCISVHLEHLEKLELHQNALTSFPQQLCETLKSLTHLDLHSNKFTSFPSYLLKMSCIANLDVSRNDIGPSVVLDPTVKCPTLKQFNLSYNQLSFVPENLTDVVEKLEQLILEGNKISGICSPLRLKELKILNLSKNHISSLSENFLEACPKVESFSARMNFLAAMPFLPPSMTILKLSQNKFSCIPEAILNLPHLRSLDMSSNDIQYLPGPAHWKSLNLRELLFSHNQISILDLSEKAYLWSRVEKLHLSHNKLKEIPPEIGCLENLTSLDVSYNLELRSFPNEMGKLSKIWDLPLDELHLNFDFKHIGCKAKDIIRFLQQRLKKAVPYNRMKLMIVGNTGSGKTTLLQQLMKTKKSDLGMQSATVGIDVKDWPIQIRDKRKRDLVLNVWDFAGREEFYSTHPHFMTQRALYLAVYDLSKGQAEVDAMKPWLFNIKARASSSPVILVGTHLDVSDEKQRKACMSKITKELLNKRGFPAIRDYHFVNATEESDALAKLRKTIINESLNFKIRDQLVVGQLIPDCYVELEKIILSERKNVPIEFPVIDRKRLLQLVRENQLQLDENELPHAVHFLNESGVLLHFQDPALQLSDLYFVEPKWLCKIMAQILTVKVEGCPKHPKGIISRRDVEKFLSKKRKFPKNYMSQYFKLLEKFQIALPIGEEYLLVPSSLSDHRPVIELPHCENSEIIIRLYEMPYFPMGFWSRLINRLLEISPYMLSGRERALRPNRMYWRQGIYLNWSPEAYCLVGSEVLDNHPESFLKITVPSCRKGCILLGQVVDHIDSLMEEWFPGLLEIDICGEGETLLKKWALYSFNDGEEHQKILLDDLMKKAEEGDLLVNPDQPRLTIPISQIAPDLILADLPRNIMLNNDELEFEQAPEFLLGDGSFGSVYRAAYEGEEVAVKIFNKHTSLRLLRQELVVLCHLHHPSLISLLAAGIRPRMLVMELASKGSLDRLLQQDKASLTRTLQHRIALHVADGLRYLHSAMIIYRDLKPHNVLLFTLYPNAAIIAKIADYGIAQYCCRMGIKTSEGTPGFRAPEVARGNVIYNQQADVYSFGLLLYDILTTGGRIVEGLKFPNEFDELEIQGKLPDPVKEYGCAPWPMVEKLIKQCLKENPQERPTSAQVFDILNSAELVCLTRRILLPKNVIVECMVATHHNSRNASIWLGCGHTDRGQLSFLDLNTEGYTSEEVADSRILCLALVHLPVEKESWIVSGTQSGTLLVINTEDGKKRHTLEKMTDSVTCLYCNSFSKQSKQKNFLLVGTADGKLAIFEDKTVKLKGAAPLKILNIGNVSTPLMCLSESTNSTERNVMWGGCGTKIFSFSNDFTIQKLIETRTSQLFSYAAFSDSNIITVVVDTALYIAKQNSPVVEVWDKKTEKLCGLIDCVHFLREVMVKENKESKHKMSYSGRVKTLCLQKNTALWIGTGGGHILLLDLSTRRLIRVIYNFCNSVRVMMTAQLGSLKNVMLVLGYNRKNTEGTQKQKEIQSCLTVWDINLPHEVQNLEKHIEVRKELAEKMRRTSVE

This experiment has as its target human recombinant LRRK2 protein (Homo sapiens, UniProt Q5S007). As to the kind of experiment: LRRK2 kinase activity assay (ADP-Glo, LRRKtide peptide). The class given is biochemical. The settings on record: human recombinant LRRK2 wt, LRRKtide peptide and ATP, 1 h at 37° C. The procedure, abridged: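 ADP-Glo luminescence read-out of a peptide assay: compound, ATP and LRRKtide substrate combined with recombinant human LRRK2 and incubated at 37 °C for 1 h. Ten-point data, N=2, curve-fitted to IC50.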
On to `Cc1cc2cc(c1)-c1n[nH]c3ccc(cc13)OCCCNC(=O)CO2` [Example 144, 4-methyl-7,14-dioxa-10,19,20-triazatetracyclo[13.5.2.1^2,6.0^18,21]tricosa-1(20),2(23),3,5,15,17,21-heptaen-9-one], for which the IC50 is below 10 nM.

As for `CC1(C)COCCCOc2ccc3[nH]nc(c3c2)-c2cnn(c2)C1` [Example 31, 7,7-dimethyl-9,13-dioxa-4,5,18,19-tetraazatetracyclo[12.5.2.1^2,5.0^17,20] docosa-1(19),2(22),3,14(21),15,17(20)-hexaene], the IC50 is below 10 nM. As for `O=C1COc2cc(cc(C3CCOCC3)c2)-c2n[nH]c3ccc(cc23)OCCCN1` [Example 146, 4-(oxan-4-yl)-7,14-dioxa-10,19,20-triazatetracyclo[13.5.2.1^2,6.0^18,21]tricosa-1(20),2(23),3,5,15,17,21-heptaen-9-one], the figure is below 10 nM. On to `C[C@H]1COCCOCCOc2ccc3[nH]nc(c3c2)-c2cnn1c2` [Example 64, (6S)-6-methyl-8,11,14-trioxa-4,5,19,20-tetraazatetra cyclo[13.5.2.1^2,5.0^18,21]tricosa-1(20),2(23),3,15(22),16,18(21)-hexaene], for which the IC50 is below 10 nM. Then `C[C@@H]1CCn2ncc(n2)-c2n[nH]c3ccc(cc23)O[C@H](C)CCO1` [Example 127, (8R,12R)-8,12-dimethyl-9,13-dioxa-4,5,18,19,22-pentaazatetracyclo [12.5.2.1^2,5.0^17,20]docosa-1(19),2(22),3,14(21),15,17(20)-hexaene], with below 10 nM. Turning to `C[C@@H]1COCCOCCn2cc(cn2)-c2n[nH]c3c(F)cc(cc23)O1` [Example 88, (13R)-17-fluoro-13-methyl-8,11,14-trioxa-4,5,19,20-tetraazatetracyclo [13.5.2.1^2,5.0^18,21]tricosa-1(20),2(23),3,15(22),16,18(21)-hexaene], the IC50 was below 10 nM. As for `O=C1COc2cc(-c3ccoc3)cc(c2)-c2n[nH]c3ccc(cc23)OCCCN1` [Example 213, 4-(furan-3-yl)-7,14-dioxa-10,19,20-triazatetracyclo[13.5.2.1^2,6.0^18,21]tricosa-1(20),2(23),3,5,15,17,21-heptaen-9-one], the figure is below 10 nM; as for `C[C@H]1CCOCCOc2nccc(n2)-c2n[nH]c3ccc(cc23)N1` [Example 30, (13S)-13-methyl-7,10-dioxa-5,14,19,20,23-pentaazatetracyclo[13.5.2.1^2,6.0^18,21]tricosa-1(20),2(23),3,5,15(22),16,18(21)-heptaene], below 100 nM.

For `COC1CN(c2cc3nc(n2)OCCOCC[C@H](C)Nc2ccc4[nH]nc-3c4c2)C1` [Example 34, (13S)-4-(3-methoxyazetidin-1-yl)-13-methyl-7,10-dioxa-5,14,19,20,23-pentaazatetracyclo[13.5.2.1^2,6.0^18,21]tricosa-1(20),2,4,6(23),15(22),16, 18(21)-heptaene], the IC50 is below 10 nM. Then `C[C@@H]1CCCOCCn2ncc(n2)-c2n[nH]c3ccc(cc23)O1` [Example 124, (12R)-12-methyl-8,13-dioxa-4,5,18,19,22-pentaazatetracyclo [12.5.2.1^2,5.0^17,20]docosa-1(19),2(22),3,14(21),15,17(20)-hexaene], with below 10 nM; and `C[C@H]1COc2nccc(n2)-c2n[nH]c3ccc(cc23)O[C@@H](C)CCO1` [Example 59, (9S,13S)-9,13-dimethyl-7,10,14-trioxa-5,19,20,23-tetraazatetracyclo [13.5.2.1^2,6.0^18,21]tricosa-1(20),2(23),3,5,15(22),16,18(21)-heptaene], with below 100 nM; and `C[C@@H]1CCOCCOCCn2ncc(n2)-c2n[nH]c3ccc(cc23)O1` [Example 133, (14R)-14-methyl-8,11,15-trioxa-4,5,20,21,24-pentaazatetracyclo[14.5.2.1^2,5.0^19,22]tetracosa-1(21),2(24),3,16(23),17,19(22)-hexaene], with below 100 nM. For `O=C1COc2cc(Br)cc(c2)-c2n[nH]c3ccc(cc23)OCCCN1` [Example 203, 4-bromo-7,14-dioxa-10,19,20-triazatetracyclo[13.5.2.1^2,6.0^18,21]tricosa-1(20),2(23),3,5,15,17,21-heptaen-9-one], the IC50 is below 10 nM. As to `C[C@@H]1CCO[C@@H](C)CCOc2ccc3[nH]nc(c3c2)-c2cnn1c2` [Example 116, (6R,10S)-6,10-dimethyl-9,13-dioxa-4,5,18,19-tetraazatetracyclo[12.5.2.1^2,5.0^17,20]docosa-1(19),2(22),3,14(21),15,17(20)-hexaene], the IC50 was below 100 nM. Then `O=C1COc2cc(cc(N3CCCCC3)c2)-c2n[nH]c3ccc(cc23)OCCCN1` [Example 204, 4-(piperidin-1-yl)-7,14-dioxa-10,19,20-triazatetracyclo [13.5.2.1^2,6.0^18,21]tricosa-1(20),2(23),3,5,15,17,21-heptaen-9-one], with below 10 nM. Then `C[C@@H]1COCCCOc2ccc3[nH]nc(c3c2)-c2ccnc(n2)O1` [Example 55, (8R)-8-methyl-7,10,14-trioxa-5,19,20,23-tetraazatetracyclo[13.5.2.1^2,6.0^18,21] tricosa-1(20),2(23),3,5,15(22),16,18(21)heptaene], with below 10 nM; and `C[C@H]1CCOCCOc2nccc(n2)-c2n[nH]c3ccc(cc23)O1` [Example 16, (13S)-13-methyl-7,10,14-trioxa-5,19,20,23-tetraazatetracyclo[13.5.2.1^2,6. 0^18,21]tricosa-1(20),2(23),3,5,15(22),16,18(21)-heptaene], with below 10 nM; and `O=C1COc2cccc(c2)-c2n[nH]c3ccc(cc23)OCCCN1` [Example 134, 7,14-dioxa-10,19,20-triazatetracyclo[13.5.2.1^2,6.0^18,21]tricosa-1(20),2(23), 3,5,15(22),16,18(21)-heptaen-9-one], with below 100 nM. As for `c1cc2[nH]nc3c2cc1OCCOCCOCCn1cc-3cn1` [Example 63, 8,11,14-trioxa-4,5,19,20-tetraazatetracyclo[13.5.2.1^2,5.0^18,21]tricosa-1(20), 2(23),3,15(22),16,18(21)-hexaene], the figure is below 10 nM; as for `COCC1CCOc2ccc3[nH]nc(c3c2)-c2cccc(c2)OCCN1` (single isomer, unassigned) [Example 153, (11R) or (11S)-11-(methoxymethyl)-7,14-dioxa-10,19,20-triazatetracyclo[13.5.2.1^2,6.0^18,21]tricosa-1(20),2(23),3,5,15,17,21-heptaene], below 100 nM.

In the case of `CN1CCOc2ccc3[nH]nc(c3c2)-c2cccc(c2)OCCC1=O` [Example 221, 11-methyl-7,14-dioxa-11,19,20-triazatetracyclo[13.5.2.1^2,6.0^18,21] tricosa-1(20),2(23),3,5,15,17,21-heptaen-10-one], the IC50 was below 100 nM. As for `C[C@@H]1CCOC[C@@H](C)Oc2ccc3[nH]nc(c3c2)-c2cncc(c2)O1` [Example 17, (8R,13R)-8,13-dimethyl-7,11,14-trioxa-4,19,20-triazatetracyclo[13.5.2.1^2,6. 0^18,21]tricosa-1(20),2(23),3,5,15(22),16,18(21)-heptaene], the figure is below 10 nM; as for `O=C1COCCn2ncc(n2)-c2n[nH]c3ccc(cc23)OCCN1` [Example 222, 8,14-dioxa-4,5,11,19,20,23-hexaazatetracyclo[13.5.2.1^2,5.0^18,21]tricosa-1(20),2(23),3,15(22),16,18(21)-hexaen-10-one], below 1000 nM.
